Here are results for one molecule from US10987350B2, “Method for treating post-traumatic stress disorder” (priority 2017, dated 2021).

The test system of data set [1] is patient diagnosed with post-traumatic stress disorder (PTSD). In words: higher dose titration schedule of nalmefene in patients diagnosed with PTSD. The class given is in vivo, human. How it is done:
One object of the subject invention is to provide improved benefit to patients diagnosed with PTSD, by employing a higher dose titration schedule for the administration of nalmefene. In accordance with the nalmefene dosing titration schedule of the subject invention, nalmefene is administered at a higher initial dose than the dosing schedule published in the pilot study, and administering nalmefene at the same, higher dose increments at regular intervals described above. Specifically, the subject invention comprises administering nalmefene orally to a PTSD patient at an initial dose of 100 milligrams per day, preferably using 50 milligram doses, twice a day, with increases every 3-4 days of 100 mg per day (50 milligrams twice a day), not to exceed 1000 mg per day (500 mg twice a day).
The subject invention comprises administering, on a dosing titration schedule, nalmefene, to a patient diagnosed with post-traumatic stress disorder (PTSD), using • a starting dose of 100 mg per day, preferably in divided doses of 50 mg twice per day; and • increasing the dose by 100-150 mg per day, every 2-5 days, up to a maximum daily dose of 1000 mg, per day.
Each increase is preferably 100 mg per day, at a divided dose of 50 mg twice per day.
An optimum dose of nalmefene, wherein PTSD symptoms are reduced or reversed, can be achieved within 2-3 weeks for individuals diagnosed with PTSD. The reduced or reversed. PTSD symptoms are based on both clinical observation of the patient and on reporting of reduced or reversed symptoms by the patient.

Data set [2] has as its system combat veterans diagnosed with post-traumatic stress disorder (PTSD). As to conditions: 18 combat veterans with PTSD; 1 mg twice a day up to 200 mg twice a day; cited from earlier work.
For data set [3] the following is noted: compared with naltrexone; cited from earlier work.
Another data set deals with liver. As to conditions: compared with naltrexone; cited from earlier work.
In data set [4] the test system is respiratory depression produced by opiate overdose. As to conditions: cited from earlier work.
[5] abbreviates: dosing administration schedule of the invention.

As to `C=C1CC[C@@]2(O)[C@H]3Cc4ccc(O)c5c4[C@@]2(CCN3CC2CC2)[C@H]1O5` [nalmefene], the “adverse reaction with large dose increments” value in data set [1] (dose increments significantly greater than 50 milligrams twice a day) is “frequent and intense mood swings”. Moreover, in data set [1] (setting [5]), the “occurrence of fluctuating mood states (anxiety, hostility and rage, depression, paranoia) with dose increases” value is reported as “successful in avoiding the occurrence of fluctuating mood states”; the “time to stabilization of mental state of the PTSD patient” value is reported as “stabilized in a much briefer period of time”. Also, the “emergence of opiate withdrawal symptoms” value in data set [1] (higher dose of at least 50 mgs twice a day) was “unexpectedly bypassed the emergence of opiate withdrawal symptoms”. Also, the “time to achieve optimum dose, wherein PTSD symptoms are reduced or reversed” value in data set [1] (higher dose titration schedule, clinical observation and patient reporting) is on record as 2-3 weeks. Also, in data set [2], the “core symptoms of PTSD (nightmares, intrusive thoughts, flashbacks, avoidance, dissociative amnesia, mistrust, hyper arousal)” value is listed as “significantly improve all core symptoms of PTSD”; the “symptom of emotional numbness” value is “significantly reduce, and in some cases remit”. Also, in data set [3], the “half-life relative to naltrexone” value was “longer half-life”. For the same molecule, the dose-dependent liver toxicity entry in the data set with liver is listed as “no observed dose-dependent liver toxicity”. Moreover, in data set [4] (intravenous doses greater than 1.5 mg), the “additional benefit in opiate overdose at higher doses” value is recorded as “do not appear to give any greater benefit”. Besides, the “counteracting respiratory depression produced by opiate overdose” value in data set [4] (intravenous doses) is given as “effective”.
